The test system of the assay is M2 of influenza viruses A (H1N1). The conditions noted are these: almost all the ORVs.

Regarding `NC12CC3CC(CC(C3)C1)C2` [amantadine], the “susceptibility by M2 sequencing (in words)” value was “sensitive”.

For the origin of these results see PMC3086245 (Emerging Infectious Diseases, 2010).
